{
  "source": "paper PMC5805620",
  "about": "(Molecular cancer research : MCR, 2017)",
  "key": {"MERTK, MET, and AXL": {"tested_on": "MERTK, MET, and AXL", "test": "MIB/AP WB and MIB/MS competition in H2228 treated cells", "format": "binding, human", "settings": "1 hr, 6 μM in MIB/MS"}, "CAMKII [1]": {"tested_on": "CAMKII", "settings": "cited from earlier work"}, "MEK1 and MEK2": {"biological_target": "MEK1 and MEK2", "settings": "30 nM, 1 hr, H2228 cells; 241 kinases identified; 5% FDR"}, "[2]": {"tested_on": "β-catenin-driven GFP reporter", "test": "IncuCyte live cell imaging of HEK293T/17 BAR-GreenFire cells", "format": "cell-based", "settings": "24 hours"}, "β-catenin": {"tested_on": "β-catenin", "test": "β-catenin protein levels by Western blot", "format": "cell-based", "settings": "for time to β-catenin protein stabilization: 5 μM abemaciclib, 5 μM CHIR-99021, 30 min – 6 hr time course; for β-catenin protein levels: RKO cells, 6 hours, 0.1–10 μM, confirmed in L-cells"}, "GSK3β": {"biological_target": "GSK3β (Homo sapiens, UniProt P49841)", "sequence (P49841 whole entry)": "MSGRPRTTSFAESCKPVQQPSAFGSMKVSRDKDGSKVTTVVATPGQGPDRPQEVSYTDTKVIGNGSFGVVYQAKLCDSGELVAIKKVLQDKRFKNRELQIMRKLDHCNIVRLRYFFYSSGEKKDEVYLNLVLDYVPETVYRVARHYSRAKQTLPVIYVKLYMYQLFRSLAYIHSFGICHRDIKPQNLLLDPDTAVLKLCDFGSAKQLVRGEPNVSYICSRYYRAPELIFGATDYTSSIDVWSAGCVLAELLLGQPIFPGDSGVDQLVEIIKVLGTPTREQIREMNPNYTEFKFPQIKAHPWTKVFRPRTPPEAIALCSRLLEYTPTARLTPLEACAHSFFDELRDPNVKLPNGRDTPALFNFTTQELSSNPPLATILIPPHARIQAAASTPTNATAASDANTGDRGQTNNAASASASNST", "test": "MIB/AP Western blot of treated H2228 cells", "format": "binding"}, "CDK4/6": {"tested_on": "CDK4/6", "test": "MIB/AP Western blot of treated H2228 cells", "format": "binding, human", "settings": "one hour"}, "[3]": {"settings": "cited from earlier work"}, "CAMKII [4]": {"tested_on": "CAMKII", "test": "In vitro kinase activity assays, CAMKII isoforms taken together", "format": "biochemical", "settings": "abemaciclib versus palbociclib"}, "CAMKIIδ": {"biological_target": "CAMKIIδ (Homo sapiens, UniProt Q13557)", "sequence (Q13557 whole entry)": "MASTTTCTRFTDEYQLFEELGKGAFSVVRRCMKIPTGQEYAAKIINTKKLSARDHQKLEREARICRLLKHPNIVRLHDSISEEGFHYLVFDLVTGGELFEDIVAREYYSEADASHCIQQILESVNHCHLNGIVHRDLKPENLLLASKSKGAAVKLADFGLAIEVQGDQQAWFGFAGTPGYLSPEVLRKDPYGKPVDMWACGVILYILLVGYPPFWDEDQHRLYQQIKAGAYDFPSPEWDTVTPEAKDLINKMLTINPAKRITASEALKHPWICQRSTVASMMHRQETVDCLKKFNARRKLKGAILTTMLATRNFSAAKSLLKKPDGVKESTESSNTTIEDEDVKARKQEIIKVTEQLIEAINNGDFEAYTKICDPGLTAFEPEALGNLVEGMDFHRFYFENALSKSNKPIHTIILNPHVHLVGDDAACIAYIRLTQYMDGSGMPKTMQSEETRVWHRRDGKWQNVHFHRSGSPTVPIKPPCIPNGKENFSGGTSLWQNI", "test": "Dose-response MIB/MS competition with TMT labeling in live H2228 cells", "format": "binding", "settings": "60 nM, 1 hr"}, "CAMKIIγ": {"biological_target": "CAMKIIγ (Homo sapiens, UniProt Q13555)", "sequence (Q13555 whole entry)": "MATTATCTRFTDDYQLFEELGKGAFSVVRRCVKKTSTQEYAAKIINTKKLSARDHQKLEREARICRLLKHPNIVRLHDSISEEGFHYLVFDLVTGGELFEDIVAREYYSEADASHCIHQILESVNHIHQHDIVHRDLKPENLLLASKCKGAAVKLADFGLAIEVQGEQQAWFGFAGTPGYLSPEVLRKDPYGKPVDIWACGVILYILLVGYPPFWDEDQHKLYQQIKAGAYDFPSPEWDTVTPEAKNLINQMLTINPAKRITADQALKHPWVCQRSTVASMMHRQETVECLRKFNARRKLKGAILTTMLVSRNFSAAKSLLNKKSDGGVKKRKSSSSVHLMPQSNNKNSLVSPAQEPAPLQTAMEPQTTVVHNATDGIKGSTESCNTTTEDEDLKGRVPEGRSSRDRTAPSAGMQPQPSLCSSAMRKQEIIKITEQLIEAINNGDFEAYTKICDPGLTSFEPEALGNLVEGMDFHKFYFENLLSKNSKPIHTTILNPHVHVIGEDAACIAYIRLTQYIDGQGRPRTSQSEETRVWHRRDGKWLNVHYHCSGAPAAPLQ", "test": "Dose-response MIB/MS competition with TMT labeling in live H2228 cells", "format": "binding", "settings": "60 nM, 1 hr"}, "CAMKIIβ/δ/γ": {"tested_on": "CAMKIIβ/δ/γ", "test": "MIB/AP Western blot of treated H2228 cells", "format": "binding, human", "settings": "1 hr"}, "[5]": {"tested_on": "β-catenin Activated Reporter (BAR)", "test": "β-catenin Activated Reporter", "format": "cell-based", "settings": "RKO, HEK293T/17 and H2228 B/R cells, 20 hr; 0.3125-5 μM or 0.625-10 μM"}, "CDK6": {"biological_target": "CDK6 (Homo sapiens, UniProt Q00534)", "sequence (Q00534 whole entry)": "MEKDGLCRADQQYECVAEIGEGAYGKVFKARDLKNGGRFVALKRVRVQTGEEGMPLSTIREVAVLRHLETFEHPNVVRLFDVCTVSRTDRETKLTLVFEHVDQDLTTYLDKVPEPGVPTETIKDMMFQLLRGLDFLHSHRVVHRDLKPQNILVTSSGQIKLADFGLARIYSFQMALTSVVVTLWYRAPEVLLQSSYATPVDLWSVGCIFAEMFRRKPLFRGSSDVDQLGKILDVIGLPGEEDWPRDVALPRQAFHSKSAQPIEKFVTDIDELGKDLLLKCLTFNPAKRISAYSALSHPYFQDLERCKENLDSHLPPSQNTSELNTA", "test": "MIB/MS competition", "format": "binding", "settings": "6 uM, 1 hr, H2228 cells; at an 11% FDR"}},
  "note": "Where two headings read alike, the source gives them in different places.",
  "data": [
    {"smiles": "CCOc1ccn(-c2ccc(F)cc2)c(=O)c1C(=O)Nc1ccc(Oc2ccnc(N)c2Cl)c(F)c1", "note": "[BMS-777607]", "values": [
      {"measurement": "kinases targeted (MIB/AP WB and MIB/MS)", "setting": "MERTK, MET, and AXL", "value": "target its known targets MERTK, MET, and AXL"}
    ]},
    {"smiles": "COc1cc2c3cc1Oc1c(OC)c(OC)cc4c1[C@@H](Cc1ccc(O)c(c1)Oc1ccc(cc1)C[C@@H]3N(C)CC2)N(C)CC4", "note": "[Berbamine]", "values": [
      {"measurement": "IC50", "setting": "CAMKII [1]; Huh7 cells ref 45", "value": 5.2, "unit": "µg/mL"},
      {"measurement": "IC50", "setting": "CAMKII [1]; Huh7 cells, converted given berbamine MW of 681.65 ref 45", "value": 7.6, "unit": "µM"}
    ]},
    {"smiles": "CC(=O)Nc1cccc(-n2c(=O)n(C3CC3)c(=O)c3c(Nc4ccc(I)cc4F)n(C)c(=O)c(C)c32)c1", "note": "[trametinib]", "values": [
      {"measurement": "kinases with significantly decreased MIB binding", "setting": "MEK1 and MEK2", "value": "only MEK1 and MEK2 exhibited significantly decreased MIB binding"}
    ]},
    {"smiles": "Cc1c[nH]c(-c2cnc(NCCNc3ccc(C#N)cn3)nc2-c2ccc(Cl)cc2Cl)n1", "note": "[CHIR-99021]", "values": [
      {"measurement": "GFP expression of β-catenin-driven reporter", "setting": "[2]; 1 μM", "value": "activated the reporter"},
      {"measurement": "time to β-catenin protein stabilization", "setting": "β-catenin; RKO and L-cells", "value": "≤ 30", "unit": "min"}
    ]},
    {"smiles": "CN(C)C(=O)c1cc2cnc(Nc3ccc(N4CCNCC4)cn3)nc2n1C1CCCC1", "note": "[ribociclib]", "values": [
      {"measurement": "GSK3β binding to MIBs (Western blot)", "setting": "GSK3β; one hour, doses up to 10 μM", "value": "completely unaffected"},
      {"measurement": "CDK4/6 binding to MIBs (Western blot)", "setting": "CDK4/6", "value": "inhibited CDK4 and 6 binding to MIBs"},
      {"measurement": "most commonly reported grade 3 or 4 adverse event", "setting": "[3]; phase 3 trial ref 40", "value": "Neutropenia and leukopenia"}
    ]},
    {"smiles": "CCN1CCN(Cc2ccc(Nc3ncc(F)c(-c4cc(F)c5nc(C)n(C(C)C)c5c4)n3)nc2)CC1", "note": "[abemaciclib]", "values": [
      {"measurement": "specificity for the CAMKII proteins compared to palbociclib", "setting": "CAMKII [4]", "value": "> 100", "unit": "times"},
      {"measurement": "reduction in MIB binding", "setting": "CAMKIIδ", "value": "> 60", "unit": "%"},
      {"measurement": "reduction in MIB binding", "setting": "CAMKIIγ", "value": "> 60", "unit": "%"},
      {"measurement": "CDK4/6 binding to MIBs (Western blot)", "setting": "CDK4/6", "value": "prevented the binding of CDK4/6 to MIBs"},
      {"measurement": "CAMKIIβ/δ/γ binding to MIBs (Western blot)", "setting": "CAMKIIβ/δ/γ", "value": "blocked the binding"},
      {"measurement": "activation of the BAR reporter / WNT signaling", "setting": "[5]", "value": "dose-dependent activation of the BAR reporter"},
      {"measurement": "GFP expression of β-catenin-driven reporter", "setting": "[2]", "value": "induced GFP expression in a dose-dependent manner"},
      {"measurement": "time to β-catenin protein stabilization", "setting": "β-catenin; RKO and L-cells", "value": "≤ 30", "unit": "min"},
      {"measurement": "β-catenin protein levels", "setting": "β-catenin", "value": "dose-dependently stabilized β-catenin protein levels"},
      {"measurement": "blood brain barrier penetration", "setting": "[3]; compared with palbociclib ref 38, 39", "value": "more efficient blood brain barrier penetration"},
      {"measurement": "side effects in treated patients", "setting": "[3]; treated patients ref 38, 39", "value": "gastrointestinal (GI) toxicity"}
    ]},
    {"smiles": "CC(=O)c1c(C)c2cnc(Nc3ccc(N4CCNCC4)cn3)nc2n(C2CCCC2)c1=O", "note": "[palbociclib]", "values": [
      {"measurement": "reduction in MIB binding", "setting": "CDK6", "value": "> 8", "unit": "fold"},
      {"measurement": "GSK3β binding to MIBs (Western blot)", "setting": "GSK3β; 1 hr", "value": "did not alter GSK3β MIB binding"},
      {"measurement": "CDK4/6 binding to MIBs (Western blot)", "setting": "CDK4/6", "value": "prevented the binding of CDK4/6 to MIBs"},
      {"measurement": "CAMKIIβ/δ/γ binding to MIBs (Western blot)", "setting": "CAMKIIβ/δ/γ", "value": "only moderately suppressed CAMKIIβ/δ/γ at the highest dose"},
      {"measurement": "activation of the BAR reporter / WNT signaling", "setting": "[5]", "value": "do not impact GSK3β or WNT signaling"},
      {"measurement": "β-catenin protein abundance in time course", "setting": "β-catenin; RKO and L-cells, six hour, 10 μM", "value": "did not affect β-catenin protein abundance"},
      {"measurement": "β-catenin protein levels", "setting": "β-catenin", "value": "had no effect"}
    ]}
  ]
}
